One assay has as its system T-47D. Description: Caspase activation assay in T-47D cells. In kind it is cell-based. The conditions noted are these: Homo sapiens; T47D cells, 24 h incubation; read-out: Caspase activation potency EC50 T47D. The method, then:
(§1) Human breast cancer cell lines T-47D and ZR-75-1, human colon cancer cell line DLD-1 and human non-small cell lung cancer cell line H1299 were grown according to media component mixtures designated by American Type Culture Collection+10% FCS (Invitrogen Corporation), in a 5% CO2−95% humidity incubator at 37° C. T-47D and ZR-75-1 cells were maintained at a cell density between 30 and 80% confluency at a cell density of 0.1 to 0.6×10^6 cells/mL. Cells were harvested at 600×g and resuspended at 0.65×10^6 cells/mL into appropriate media+10% FCS. An aliquot of […] of cells was added to a well of a 96-well microtiter plate containing 5 μl of a 10% DMSO in RPMI-1640 media solution containing about 0.16 to 10 μM of 2,7,8-triamino-4-(3-bromo-4,5-dimethoxy-phenyl)-3-cyano-4H-chromene (1) or other test compounds (0.016 to 1 μM final). An aliquot of 45 μl of cells was added to a well of a 96-well microtiter plate containing 5 μl of a 10% DMSO in RPMI-1640 media solution without test compound as the control sample. The samples were mixed by agitation and then incubated at 37° C. for 24 h in a 5% CO2−95% humidity incubator. After incubation, the samples were removed from the incubator and 50 μl of a solution containing 20 μM of N-(Ac-DEVD)-N′-ethoxycarbonyl-R110 (SEQ ID No:1) fluorogenic substrate (Cytovia, Inc.; U.S. Pat. No. 6,335,429), 20% sucrose (Sigma), 20 mM DTT (Sigma), 200 mM NaCl (Sigma), 40 mM Na PIPES buffer pH 7.2 (Sigma), and 500 μg/ml lysolecithin (Calbiochem) was added. The samples were mixed by agitation and incubated at room temperature. Using a fluorescent plate reader (Model 1420 Wallac Instruments), an initial reading (T=0) was made about 1-2 min after addition of the substrate solution, employing excitation at 485 nm and emission at 530 nm, to determine the background fluorescence of the control sample. After the 3 h incubation, the samples were read for fluorescence as above (T=3 h).
(§2) The Relative Fluorescence Unit values (RFU) were used to calculate the sample readings as follows: RFU(T=3h)−Control RFU(T=0)=Net RFU(T=3h)
(§3) The activity of caspase cascade activation was determined by the ratio of the net RFU value for 2,7,8-triamino-4-(3-bromo-4,5-dimethoxy-phenyl)-3-cyano-4H-chromene or other test compound to that of control samples. The EC50 (nM) was determined by a sigmoidal dose-response calculation (Prism 2.0, GraphPad Software Inc.).

The test system of assay [1] is MX1 human breast cancer tumors. Description: In vivo antitumor activity in MX-1 model, single agent. Also on record: species or system mice. As to the method: MX1 human breast cancer tumors were obtained from the NCI-FCRDC and maintained as tumors in nude mice. Tumor bits were implanted with a trocar into the right mammary area of female nu/nu mice and allowed to grow to an average size of 200-250 mg, about 12 days after being implanted. Animals were randomized and assigned to study groups of 8-10 animals/group. Body weight were determined and tumor size were measured by calipers and converted to volume by the standard formula of Vol=L×W^2/2. Compound 1R was formulated in 7% PEG400/9% Tween80/84% D5W and administered IV via the tail vein at the indicated days and doses. Day 1 of the study was the first day of treatment. Survival time was the number of days for the tumor to reach 1000 mg or death, whichever occurred earliest. Median survival is the median for the group.

Another assay concerns HUVEC cells. Put plainly: HUVEC tube disruption assay. In kind it is cell-based. As to the method: Aliquots of Matrigel basement membrane matrix (300 μl, BD Biosciences, Mississauga, Ontario, Canada) were added to each well of 24-well plates (Fisher Scientific Ltd, Nepean, Ontario, Canada) and allowed to incubate for 1 h at 37° C. HUVEC cells (3×10^4) were added per well in EGM-2 and incubated for 4 h at 37° C. in a 5% CO2 atmosphere to allow the cells to form tube-like structures. Compound 1R was diluted in DMSO to its respective concentrations, added to cells, and allowed to incubate for 1 h at 37° C. in a 5% CO2 atmosphere. Following the incubation, the medium was gently aspirated and fresh EGM-2 was added and cells were further incubated for 24 h. Miroscopy images were recorded with a Zeiss LSM 510 confocal microscope (Zeiss Canada Ltd, Toronto, Ontario, Canada). The effect of compound 1R on capillary tube disruption was evaluated by light microscopy (×40 magnification) and the results are summarized in Table III.

In a further assay the test system is DLD-1. Put plainly: Caspase activation assay in DLD-1 cells. The conditions noted are these: Homo sapiens, 24 h incubation, read-out: Caspase activation potency EC50 DLD-1. In kind it is cell-based. The method, then: as §1, with “After incubation, the samples were removed from the incubator and 50 μl of a solution containing 20 μM of N-(Ac-DEVD)-N′-ethoxycarbonyl-R110 (SEQ ID No:1) fluorogenic substrate (Cytovia, Inc.; U.S. Pat. No. 6,335,429), 20% sucrose (Sigma), 20 mM DTT (Sigma), 200 mM NaCl (Sigma), 40 mM Na PIPES buffer pH 7.2 (Sigma), and 500 μg/ml lysolecithin (Calbiochem) was added. The samples were mixed by agitation and incubated at room temperature.” left out
as §2, §3

Molecules are shown by their SMILES.

On to `COc1cc([C@H]2C(C#N)=C(N)Oc3c2ccc(N)c3N)cc(Br)c1OC` [Compound 1R, R(−)-2,7,8-triamino-4-(3-bromo-4,5-dimethoxy-phenyl)-3-cyano-4H-chromene], for which the EC50 in the assay with T-47D was 21 nM; with DLD-1 it was 57 nM. Moreover, the Median survival time is reported as 19 days in assay [1] (20 mg/kg IV, once a day for days 1-3 (QD × 3)); 46 days in assay [1] (20 mg/kg IV, once a day for days 1-5 (QD × 5)); 27.5 days in assay [1] (20 mg/kg IV, once a week, day 1, 8, 15 (QW × 3)); 38 days in assay [1] (40 mg/kg IV, once a day for days 1-3 (QD × 3)); more than 100 days in assay [1] (40 mg/kg IV, once a day for days 1-5 (QD × 5)); 41 days in assay [1] (40 mg/kg IV, once a week, day 1, 8, 15 (QW × 3)). For the same compound, the Median survival time in assay [1] (60 mg/kg IV, once a day for days 1-3 (QD × 3)) is reported as 78 days; in assay [1] (60 mg/kg IV, once a week, day 1, 8, 15 (QW × 3)) it was 37.5 days. In addition, in the assay with HUVEC cells (3.3 nM), the “Tube formation % inhibition” value is on record as “No inhibition”. Besides, the “Lowest concentration that inhibited tube formation” value in the assay with HUVEC cells (HUVEC tubes) is reported as 10 nM. Further, the inhibition at 0.01 µM in the assay on HUVEC cells (Homo sapiens, HUVEC, 10 nM, read-out: Tube formation % inhibition) worked out at 75%. The inhibition at 0.03 µM in the assay on HUVEC cells (Homo sapiens, HUVEC, 30 nM, read-out: Tube formation % inhibition) came out at 100%. In addition, the inhibition at 0.1 µM with HUVEC cells (Homo sapiens, HUVEC, 100 nM, read-out: Tube formation % inhibition) was 100%.

One may read the EC50 as the concentration that produces a half-maximal response. Usually inhibition stands for the percentage by which the read-out fell short of the control.

The record behind these values is patent publication US7968595B2, “Substituted 4-aryl-chromene as activator of caspases and inducer of apoptosis and as antivascular agent and the use thereof” (Cytovia, Inc., priority 2006, dated 2011).
